# Measurements: patent US12152038B2, “Vasopressin receptor antagonists and products and methods related thereto” (Neumora Therapeutics, Inc., priority 2017, dated 2024)
# pIC50: −log10 of the molar value.
# What was measured:
# [1] = target: T1, human Arginine Vasopressin Receptor 1a (AVPR1a) (Homo sapiens, UniProt P37288); assay: Vasopressin V1a receptor antagonist assay (FLIPR calcium, CHO-AVPR1a cells); type: cell-based
# T1 construct: expressed in transfected cells; host or cells: CHO (CHO-AVPR1a, kept under G418 selection)
# How it was run: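 CHO cells expressing human AVPR1a were loaded with Calcium-6 dye and preincubated with compound for 15 min at 37° C. Cells were then challenged with AVP at its daily-determined EC80, and FLIPR fluorescence was read. Compounds were tested in duplicate as 10-point 1:3 dilutions from a top final concentration of 3 μM.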
# [2] = target: T2, human Arginine Vasopressin Receptor V2 (AVPR2) (Homo sapiens, UniProt P30518); assay: Vasopressin V2 receptor antagonist assay (TR-FRET cAMP, 1321N1 cells); type: cell-based
# T2 construct: host or cells: 1321N1 (cAMPZen V2 assay ready frozen cells)
# Procedure: The purpose of the assay was to determine the inhibitory effect of synthesized compounds on the Vasopressin receptor 2. The assay was performed in commercially available 1321N1 cells expressing the human Arginine Vasopressin Receptor V2 (AVPR2) (Perkin Elmer #ES-363-CF). Arginine Vasopressin (AVP) evokes an increase in intracellular cAMP in these cells which is measured in a TR-FRET assay using a Europium cAMP tracer and ULight labelled antibody reagents contained in a LANCE Ultra cAMP kit (Perkin Elmer #TRF0263). Increases in cAMP in the assay result in a reduction in TR-FRET as the cAMP produced by the stimulated cells competes with the Eu-cAMP tracer for binding sites on the ULight labelled antibody. Test compounds were assessed for their ability to affect the magnitude of the response to AVP, with antagonists showing a concentration-dependent decrease in the AVP-mediated reduction in TR-FRET signal.
# cAMPZen V2 assay ready cells were thawed at 37° C. and resuspended directly from frozen in 9 ml growth medium consisting of DMEM supplemented with 10% v/v fetal bovine serum, 1× non-essential amino acids, and 1 mM sodium pyruvate. Cells were spun at 1000 rpm for 3 minutes and the supernatant was carefully removed and discarded. The pellet was resuspended in 5 ml stimulation buffer and the cell density determined using the Vi-Cell automated cell counter. The cell suspension was diluted to a 0.2×10^6/ml suspension ready for plating. To all wells of a white 384-well Optiplate (Perkin Elmer #6007299) 5 μL of cells in stimulation buffer were dispensed (1,000 cells per well). Stimulation buffer consisted of HBSS (+Ca/+Mg) supplemented with 5 mM HEPES, 0.1% BSA stabiliser and 0.5 mM IBMX.
# At the start of each assay day the potency of AVP was assessed and an EC80 concentration determined for subsequent compound profiling. Assays were performed by first an addition of 2.5 μl of control or test compound at 4× final concentration in stimulation buffer followed by 2.5 μl of AVP at 4× final concentration in stimulation buffer. After a 1 hour reaction, detection reagents were added by first an addition of 5 μl EU-cAMP tracer, followed by 5 μl ULight-anti-cAMP both diluted as per the manufacturer's instructions. After a one hour incubation, plates were ready to be read (signals then remained stable for up to 24 hours). Changes in time resolved fluorescence were monitored with excitation via a laser (337 nm) measuring both 615 nm and 665 nm emission wavelengths. […] For compound profiling, test compounds were dispensed by the Labcyte Echo (10-point curve, 1:3 dilutions) in a target 0.1 μl volume then diluted 750-fold in stimulation buffer containing 3% DMSO prior to addition to the cells. At the end of the incubation period, 2.5 μl of AVP in stimulation buffer was added at the previously determined EC80 concentration.
# In-plate controls for the assay included a Tolvaptan concentration-response curve as the reference V2 antagonist and an AVP concentration-response curve to confirm the reproducibility of the EC80 used for the compound challenge.
# T2 sequence (P30518 whole entry): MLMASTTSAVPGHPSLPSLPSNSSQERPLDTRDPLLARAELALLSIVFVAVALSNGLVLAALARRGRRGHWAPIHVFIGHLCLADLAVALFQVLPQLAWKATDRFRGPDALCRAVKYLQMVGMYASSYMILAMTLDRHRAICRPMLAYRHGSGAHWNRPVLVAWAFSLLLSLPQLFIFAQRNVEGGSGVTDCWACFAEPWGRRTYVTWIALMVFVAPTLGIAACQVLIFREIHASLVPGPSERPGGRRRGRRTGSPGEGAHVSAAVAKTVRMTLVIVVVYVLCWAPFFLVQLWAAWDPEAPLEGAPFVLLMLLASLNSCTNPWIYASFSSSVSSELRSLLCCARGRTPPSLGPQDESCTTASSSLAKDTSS
# T1 sequence (P37288 whole entry): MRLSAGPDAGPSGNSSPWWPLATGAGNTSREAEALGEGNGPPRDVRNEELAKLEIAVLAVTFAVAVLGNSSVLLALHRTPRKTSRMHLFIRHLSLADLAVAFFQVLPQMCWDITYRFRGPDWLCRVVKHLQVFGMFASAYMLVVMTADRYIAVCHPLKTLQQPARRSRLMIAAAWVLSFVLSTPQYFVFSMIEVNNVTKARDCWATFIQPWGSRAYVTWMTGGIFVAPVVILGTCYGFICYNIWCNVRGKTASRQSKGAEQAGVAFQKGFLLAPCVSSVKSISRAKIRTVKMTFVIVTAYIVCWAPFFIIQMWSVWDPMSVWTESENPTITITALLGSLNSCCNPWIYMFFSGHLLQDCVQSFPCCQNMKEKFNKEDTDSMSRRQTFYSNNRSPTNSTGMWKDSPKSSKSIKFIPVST
pIC50 [1],pIC50 [2],SMILES
> 7.00,> 7.00,CC1COc2cc(F)c(F)cc2N1C(=O)N1CC2(C1)CN(c1ccc(F)cn1)C2 (stereo not shown) [19-5]
> 7.00,6.30 to 7.00,Cc1cnc(N2CC3(CN(C(=O)N4c5ccc(Cl)cc5OCC4C)C3)C2)nc1 (stereo not shown) [20-13]
> 7.00,≤ 6.00,CC1COc2cc(Cl)c(F)cc2N1C(=O)N1CC2(C1)CN(c1cccnn1)C2 (stereo not shown) [19-4]
> 7.00,≤ 6.00,"CC1COc2cc(Cl)ccc2N1C(=O)N1CC2(C1)CN(c1cccnn1)C2 (stereo not shown) [9-1, (7-chloro-3-methyl-2,3-dihydro-4H-benzo[b][1,4]oxazin-4-yl)(6-(pyridazin-3-yl)-2,6-diazaspiro[3.3]heptan-2-yl)methanone]"
> 7.00,> 7.00,Cc1ccnc(N2CC3(CN(C(=O)N4c5ccc(Cl)cc5OCC4C)C3)C2)n1 (stereo not shown) [20-12]
> 7.00,≤ 6.00,"O=C(N1CC2(C1)CN(c1ccc(F)cn1)C2)N1CCC(F)(F)c2cc(Cl)ccc21 [17-1, (6-chloro-4,4-difluoro-3,4-dihydroquinolin-1(2H)-yl)(6-(5-fluoropyridin-2-yl)-2,6-diazaspiro[3.3]heptan-2-yl)methanone]"
> 7.00,6.30 to 7.00,CC1COc2cc(Cl)ccc2N1C(=O)N1CC2(C1)CN(c1noc3cccnc13)C2 (stereo not shown) [18-3]
> 7.00,≤ 6.00,O=C(N1CC2(C1)CN(c1ccccn1)C2)N1CCOc2cc(Cl)ccc21 [8-2]
> 7.00,≤ 6.00,CC1CN(C(=O)N2CC3(C2)CN(c2ccc(F)cn2)C3)c2ccc(Cl)cc2O1 (stereo not shown) [9-3]
> 7.00,≤ 6.00,CC1COc2cc(Cl)c(F)cc2N1C(=O)N1CC2(C1)CN(c1cccnc1)C2 (stereo not shown) [19-6]
> 7.00,≤ 6.00,O=C(N1CC2(C1)CN(c1cnccn1)C2)N1CCC(O)c2cc(Cl)ccc21 (stereo not shown) [13-3]
> 7.00,≤ 6.00,O=C(N1CC2(C1)CN(c1cnccn1)C2)N1CCOCc2cc(Cl)ccc21 [8-13]
> 7.00,6.00 to 6.30,Cc1nccnc1N1CC2(CN(C(=O)N3c4ccc(Cl)cc4OCC3C)C2)C1 (stereo not shown) [20-10]
> 7.00,≤ 6.00,O=C(N1CC2(C1)CN(c1cnccn1)C2)N1CCc2cc(Cl)ccc21 [8-14]
> 7.00,> 7.00,CC1Cc2cc(Cl)ccc2N1C(=O)N1CC2(C1)CN(c1ccc(F)cn1)C2 (stereo not shown) [8-16]
> 7.00,≤ 6.00,O=C(N1CC2(C1)CN(c1ccc(F)cn1)C2)N1CCOc2cc(F)c(F)cc21 [9-6]
> 7.00,≤ 6.00,O=C(N1CC2(C1)CN(c1ccccn1)C2)N1CCOCc2cc(Cl)ccc21 [8-12]

# Further lines, the compound ahead of its results:
SMILES,pIC50 [1],pIC50 [2]
O=C(N1CC2(C1)CN(c1ncc(F)cn1)C2)N1CCOc2cc(Cl)ccc21 [4-2],> 7.00,≤ 6.00
O=C(N1CC2(C1)CN(c1cccnn1)C2)N1CCOc2cc(Cl)c(F)cc21 [1-81],> 7.00,≤ 6.00
"CC1CN(C(=O)N2CC3(C2)CN(c2ccc(F)cn2)C3)c2ccc(Cl)cc2O1 (single isomer, unassigned) [9-3-A]",> 7.00,≤ 6.00
"CC1COc2cc(Cl)ccc2N1C(=O)N1CC2(C1)CN(c1cccnn1)C2 (single isomer, unassigned) [9-1-A]",≤ 6.00,≤ 6.00
O=C(N1CC2(C1)CN(c1ccccn1)C2)N1CCc2cc(Cl)ccc21 [1-77],> 7.00,≤ 6.00
"CC1COc2cc(F)c(F)cc2N1C(=O)N1CC2(C1)CN(c1ncccn1)C2 (single isomer, unassigned) [19-1-B]",> 7.00,≤ 6.00
"CC1CN(C(=O)N2CC3(C2)CN(c2ccc(F)cn2)C3)c2ccc(F)cc2O1 (single isomer, unassigned) [9-4-B]",> 7.00,≤ 6.00
"O=C(N1CC2(C1)CN(c1ccc(F)cn1)C2)N1CCC(O)c2cc(Cl)ccc21 (single isomer, unassigned) [13-1-A]",> 7.00,≤ 6.00
"O=C(N1CC2(C1)CN(c1noc3ccccc13)C2)N1CCOc2cc(Cl)ccc21 [4-1, (6-(benzo[d]isoxazol-3-yl)-2,6-diazaspiro[3.3]heptan-2-yl)(7-chloro-2,3-dihydro-4H-benzo[b][1,4]oxazin-4-yl)methanone]",> 7.00,≤ 6.00
"CC1COc2cc(F)c(F)cc2N1C(=O)N1CC2(C1)CN(c1cccnn1)C2 (single isomer, unassigned) [19-3-B]",> 7.00,≤ 6.00
O=C(N1CC2(C1)CN(c1ncccc1F)C2)N1CCc2cc(Cl)ccc21 [1-76],> 7.00,≤ 6.00
"CC1COc2cc(Cl)ccc2N1C(=O)N1CC2(C1)CN(c1cccnc1)C2 (single isomer, unassigned) [20-1-B]",> 7.00,≤ 6.00
"Cc1nc(N2CC3(CN(C(=O)N4c5ccc(Cl)cc5OCC4C)C3)C2)ncc1F (single isomer, unassigned) [20-7-B]",> 7.00,> 7.00
"CC1COc2cc(F)ccc2N1C(=O)N1CC2(C1)CN(c1ccc(F)cn1)C2 (single isomer, unassigned) [12-1-B]",> 7.00,6.30 to 7.00
"Cc1cncc(N2CC3(CN(C(=O)N4c5ccc(F)cc5OCC4C)C3)C2)n1 (single isomer, unassigned) [20-2-B]",> 7.00,> 7.00
O=C(N1CC2(C1)CN(c1cccc(F)n1)C2)N1CCc2cc(Cl)ccc21 [1-78],> 7.00,≤ 6.00
"CC1COc2cc(Cl)ccc2N1C(=O)N1CC2(C1)CN(c1ncccn1)C2 (single isomer, unassigned) [1-83-B, (7-chloro-3-methyl-2,3-dihydro-4H-benzo[b][1,4]oxazin-4-yl)(6-(pyrimidin-2-yl)-2,6-diazaspiro[3.3]heptan-2-yl)methanone]",> 7.00,≤ 6.00
"CC1COc2cc(F)ccc2N1C(=O)N1CC2(C1)CN(c1noc3ccccc13)C2 (single isomer, unassigned) [4-3-B]",> 7.00,6.00 to 6.30
"CC1COc2cc(Cl)ccc2N1C(=O)N1CC2(C1)CN(c1cccnn1)C2 (single isomer, unassigned) [9-1-B]",> 7.00,≤ 6.00
O=C(N1CC2(C1)CN(c1cc(F)ccn1)C2)N1CCc2cc(Cl)ccc21 [1-79],> 7.00,≤ 6.00
"O=C(N1CC2(C1)CN(c1ccccn1)C2)N1CCC(O)c2cc(Cl)ccc21 (single isomer, unassigned) [13-2-A]",> 7.00,≤ 6.00
